Measured values taken from ChEMBL document CHEMBL4831559, “Antitarget Selectivity and Tolerability of Novel Pyrrolo[2,3-d]pyrimidine RET Inhibitors” (ACS Med Chem Lett, 2021).
pIC50: −log10 of the molar value. Activity calls are given as the source filed them. No cut-off for these calls is given here.

Key:
[1] = Plasma protein binding in mouse at 5 uM measured after 16 hrs by LC-MS/MS based rapid equilibrium dialysis analysis; assay type: ADME, cell-free; conditions: read-out: PPB (converted)
[2] = Volume of distribution at steady state in BALB/c mouse at 2 mg/kg, iv measured by LC-MS/MS analysis; assay type: ADME, organism-based; conditions: in vivo, read-out: Vdss
[3] = Half life in BALB/c mouse at 2 mg/kg, iv measured by LC-MS/MS analysis; assay type: ADME, organism-based; conditions: in vivo
[4] = fCmax in nude mouse xenografted with KIF5B-RET BaF3 cells xenografted at 60 mg/kg, po qd for 14 days; assay type: ADME, organism-based; conditions: in vivo, 336 h, time 14 day
BaF3 [5] = assay: cells; conditions: Mus musculus, BaF3, 48 h
Description: Antiproliferative activity against mouse BaF3 cells assessed as reduction in cell proliferation incubated for 48 hrs by cell proliferation assay

[6] = AUC in BALB/c mouse at 2 mg/kg, iv measured by LC-MS/MS analysis; assay type: ADME, organism-based; parameters: dose 2 mg/kg; conditions: in vivo
[7] = AUC in nude mouse xenografted with KIF5B-RET BaF3 cells xenografted at 60 mg/kg, po qd for 14 days; assay type: ADME, organism-based; parameters: time 14 day, dose 60 mg/kg; conditions: in vivo
[8] = Clearance in BALB/c mouse at 2 mg/kg, iv measured by LC-MS/MS analysis; assay type: ADME, organism-based; conditions: in vivo
[9] = Oral bioavailability in BALB/c mouse at 10 mg/kg measured by LC-MS/MS analysis; assay type: ADME, organism-based; conditions: in vivo
[10] = fAUC in nude mouse xenografted with KIF5B-RET BaF3 cells xenografted at 60 mg/kg, po qd for 14 days; assay type: ADME, organism-based; conditions: in vivo, 336 h, time 14 day
[11] = Toxicity in nude mouse transfected with mouse KIF5B-RET BaF3 cells assessed as adverse effect at 10 to 60 mg/kg, po qd measured after 14 days; assay type: organism-based; conditions: in vivo, 336 h, dose 10-60 mg/kg, time 14 day
[12] = Cmax in nude mouse xenografted with KIF5B-RET BaF3 cells xenografted at 60 mg/kg, po qd for 14 days; assay type: ADME, organism-based; parameters: route oral, time 14 day, dose 60 mg/kg; conditions: in vivo
[13] = Cmax in BALB/c mouse at 10 mg/kg, po measured by LC-MS/MS analysis; assay type: ADME, organism-based; parameters: route oral, dose 10 mg/kg; conditions: in vivo
[14] = AUC in BALB/c mouse at 10 mg/kg, po measured by LC-MS/MS analysis; assay type: ADME, organism-based; parameters: dose 10 mg/kg; conditions: in vivo
[15] = Cmax in BALB/c mouse at 2 mg/kg, iv measured by LC-MS/MS analysis; assay type: ADME, organism-based; parameters: route intravenous, dose 2 mg/kg; conditions: in vivo
[16] = Toxicity in nude mouse transfected with mouse KIF5B-RET BaF3 cells assessed as body weight loss at 10 to 60 mg/kg, po qd measured after 14 days; assay type: organism-based; conditions: in vivo, 336 h, dose 10-60 mg/kg, time 14 day
[17] = molecular target: Proto-oncogene tyrosine-protein kinase receptor Ret (Mus musculus) (UniProt P35546); assay: In vivo inhibition of RET phosphorylation in mouse KIF5B-RET BaF3 cells transfected in nude mouse […] at 60 mg/kg, po qd measured after 5 hrs; assay type: functional, organism-based
[18] = Half life in BALB/c mouse at 10 mg/kg, po measured by LC-MS/MS analysis; assay type: ADME, organism-based; conditions: in vivo
BaF3 [19] = assay: Antitumor activity against mouse KIF5B-RET BaF3 cells xenografted in nude mouse assessed as tumor regression at 60 mg/kg, po qd measured after 14 days; assay type: functional, organism-based; conditions: time 14.0 day
[20] = molecular target: T1, Voltage-gated inwardly rectifying potassium channel KCNH2 (Homo sapiens, UniProt Q12809); assay: Displacement of [3H]-dofetilide from human ERG expressed in CHO cell after 90 mins by microbeta liquid scintillation counting method; assay type: cell-based
Mus musculus [21] = assay: Antitumor activity against mouse KIF5B-RET BaF3 cells xenografted in nude mouse assessed as tumor regression at 10 mg/kg, po qd measured after 16 days; assay type: functional, organism-based; conditions: time 16.0 day
[22] = Cmax in nude mouse xenografted with KIF5B-RET BaF3 cells xenografted at 10 mg/kg, po qd for 14 days; assay type: ADME, organism-based; parameters: route oral, time 14 day, dose 10 mg/kg; conditions: in vivo
[23] = fCmax in nude mouse xenografted with KIF5B-RET BaF3 cells xenografted at 10 mg/kg, po qd for 14 days; assay type: ADME, organism-based; conditions: in vivo, 336 h, time 14 day
BaF3 [24] = conditions: Mus musculus, dose 10.0 mg/kg, time 21.0 day
[25] = molecular target: T1, Voltage-gated inwardly rectifying potassium channel KCNH2; assay: Inhibition of human ERG expressed in CHO cells by manual patch clamp assay; assay type: cell-based
BaF3 [26] = assay: Antitumor activity against mouse KIF5B-RET BaF3 cells xenografted in nude mouse assessed as tumor regression at 1 to 10 mg/kg, po qd measured after 16 days; assay type: functional, organism-based; conditions: dose 1-10 mg/kg, time 16.0 day
[27] = AUC in nude mouse xenografted with KIF5B-RET BaF3 cells xenografted at 10 mg/kg, po qd for 14 days; assay type: ADME, organism-based; parameters: time 14 day, dose 10 mg/kg; conditions: in vivo
[28] = Toxicity in nude mouse transfected with mouse KIF5B-RET BaF3 cells assessed as adverse effect at 30 mg/kg, po qd measured after 14 days; assay type: organism-based; conditions: in vivo, 336 h, time 14 day
Mus musculus [29] = assay: Antitumor activity against mouse KIF5B-RET BaF3 cells xenografted in nude mouse assessed as tumor regression at 30 mg/kg, po qd measured after 16 days; assay type: functional, organism-based; conditions: time 16.0 day
[30] = fAUC in nude mouse xenografted with KIF5B-RET BaF3 cells xenografted at 10 mg/kg, po qd for 14 days; assay type: ADME, organism-based; conditions: in vivo, 336 h, time 14 day
[31] = Half life in BALB/c mouse at 3.4 mg/kg, iv measured by LC-MS/MS analysis; assay type: ADME, organism-based; conditions: in vivo
[32] = Volume of distribution at steady state in BALB/c mouse at 3.4 mg/kg, iv measured by LC-MS/MS analysis; assay type: ADME, organism-based; conditions: in vivo, read-out: Vdss
[33] = Cmax in BALB/c mouse at 3.4 mg/kg, iv measured by LC-MS/MS analysis; assay type: ADME, organism-based; parameters: route intravenous, dose 3.4 mg/kg; conditions: in vivo
[34] = Oral bioavailability in BALB/c mouse at 13.5 mg/kg measured by LC-MS/MS analysis; assay type: ADME, organism-based; conditions: in vivo
[35] = AUC in BALB/c mouse at 13.5 mg/kg, po measured by LC-MS/MS analysis; assay type: ADME, organism-based; parameters: dose 13.5 mg/kg; conditions: in vivo
[36] = molecular target: Proto-oncogene tyrosine-protein kinase receptor Ret (Homo sapiens, UniProt P07949); assay: Inhibition of RET (658 to 1072) (unknown origin) by HTRF assay
[37] = Clearance in BALB/c mouse at 3.4 mg/kg, iv measured by LC-MS/MS analysis; assay type: ADME, organism-based; conditions: in vivo
[38] = Cmax in BALB/c mouse at 13.5 mg/kg, po measured by LC-MS/MS analysis; assay type: ADME, organism-based; parameters: route oral, dose 13.5 mg/kg; conditions: in vivo
[39] = AUC in BALB/c mouse at 3.4 mg/kg, iv measured by LC-MS/MS analysis; assay type: ADME, organism-based; parameters: dose 3.4 mg/kg; conditions: in vivo
Bcr/Abl fusion protein = Bcr/Abl fusion protein (Homo sapiens, UniProt P00519); assay: Inhibition of BCR-ABL (unknown origin) expressed in mouse BaF3 cells assessed as reduction in cell proliferation incubated for 48 hrs by cell proliferation assay; assay type: cell-based
[40] = Half life in BALB/c mouse at 13.5 mg/kg, po measured by LC-MS/MS analysis; assay type: ADME, organism-based; conditions: in vivo
[41] = Toxicity in nude mouse transfected with mouse KIF5B-RET BaF3 cells assessed as adverse effect at 10 mg/kg, po qd measured after 14 days; assay type: organism-based; conditions: in vivo, 336 h, time 14 day

T1 sequence (Q12809 whole entry): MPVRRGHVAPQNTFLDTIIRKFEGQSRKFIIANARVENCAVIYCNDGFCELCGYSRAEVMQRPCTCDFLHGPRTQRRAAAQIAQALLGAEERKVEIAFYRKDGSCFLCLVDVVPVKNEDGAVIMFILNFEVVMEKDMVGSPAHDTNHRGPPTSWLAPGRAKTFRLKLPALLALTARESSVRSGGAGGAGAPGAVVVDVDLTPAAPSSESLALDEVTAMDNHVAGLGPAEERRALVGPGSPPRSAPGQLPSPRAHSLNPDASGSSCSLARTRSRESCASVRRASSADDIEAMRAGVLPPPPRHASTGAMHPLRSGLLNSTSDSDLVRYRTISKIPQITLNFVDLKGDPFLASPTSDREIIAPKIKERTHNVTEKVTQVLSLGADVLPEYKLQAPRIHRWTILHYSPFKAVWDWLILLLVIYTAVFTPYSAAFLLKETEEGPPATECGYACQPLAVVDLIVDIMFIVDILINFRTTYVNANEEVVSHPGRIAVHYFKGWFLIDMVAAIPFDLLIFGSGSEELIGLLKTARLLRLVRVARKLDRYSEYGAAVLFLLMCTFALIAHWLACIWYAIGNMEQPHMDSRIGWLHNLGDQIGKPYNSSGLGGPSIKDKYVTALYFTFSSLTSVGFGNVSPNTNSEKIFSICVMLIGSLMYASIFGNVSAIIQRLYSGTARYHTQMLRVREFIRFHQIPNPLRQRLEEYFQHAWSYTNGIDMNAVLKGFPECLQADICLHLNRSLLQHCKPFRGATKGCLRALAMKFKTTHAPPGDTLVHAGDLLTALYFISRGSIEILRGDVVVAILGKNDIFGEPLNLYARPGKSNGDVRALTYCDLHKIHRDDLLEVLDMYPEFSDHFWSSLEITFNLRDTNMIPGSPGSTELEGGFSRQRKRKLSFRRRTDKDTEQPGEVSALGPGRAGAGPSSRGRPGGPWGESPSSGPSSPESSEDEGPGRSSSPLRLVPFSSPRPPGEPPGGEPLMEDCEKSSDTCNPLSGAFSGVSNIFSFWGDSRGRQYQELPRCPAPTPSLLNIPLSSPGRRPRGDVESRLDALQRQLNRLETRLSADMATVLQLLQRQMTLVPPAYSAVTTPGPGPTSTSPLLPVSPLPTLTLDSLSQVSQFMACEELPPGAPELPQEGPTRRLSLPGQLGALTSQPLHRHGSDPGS
Chain of Proto-oncogene tyrosine-protein kinase receptor Ret (Mus musculus) (P35546 whole entry): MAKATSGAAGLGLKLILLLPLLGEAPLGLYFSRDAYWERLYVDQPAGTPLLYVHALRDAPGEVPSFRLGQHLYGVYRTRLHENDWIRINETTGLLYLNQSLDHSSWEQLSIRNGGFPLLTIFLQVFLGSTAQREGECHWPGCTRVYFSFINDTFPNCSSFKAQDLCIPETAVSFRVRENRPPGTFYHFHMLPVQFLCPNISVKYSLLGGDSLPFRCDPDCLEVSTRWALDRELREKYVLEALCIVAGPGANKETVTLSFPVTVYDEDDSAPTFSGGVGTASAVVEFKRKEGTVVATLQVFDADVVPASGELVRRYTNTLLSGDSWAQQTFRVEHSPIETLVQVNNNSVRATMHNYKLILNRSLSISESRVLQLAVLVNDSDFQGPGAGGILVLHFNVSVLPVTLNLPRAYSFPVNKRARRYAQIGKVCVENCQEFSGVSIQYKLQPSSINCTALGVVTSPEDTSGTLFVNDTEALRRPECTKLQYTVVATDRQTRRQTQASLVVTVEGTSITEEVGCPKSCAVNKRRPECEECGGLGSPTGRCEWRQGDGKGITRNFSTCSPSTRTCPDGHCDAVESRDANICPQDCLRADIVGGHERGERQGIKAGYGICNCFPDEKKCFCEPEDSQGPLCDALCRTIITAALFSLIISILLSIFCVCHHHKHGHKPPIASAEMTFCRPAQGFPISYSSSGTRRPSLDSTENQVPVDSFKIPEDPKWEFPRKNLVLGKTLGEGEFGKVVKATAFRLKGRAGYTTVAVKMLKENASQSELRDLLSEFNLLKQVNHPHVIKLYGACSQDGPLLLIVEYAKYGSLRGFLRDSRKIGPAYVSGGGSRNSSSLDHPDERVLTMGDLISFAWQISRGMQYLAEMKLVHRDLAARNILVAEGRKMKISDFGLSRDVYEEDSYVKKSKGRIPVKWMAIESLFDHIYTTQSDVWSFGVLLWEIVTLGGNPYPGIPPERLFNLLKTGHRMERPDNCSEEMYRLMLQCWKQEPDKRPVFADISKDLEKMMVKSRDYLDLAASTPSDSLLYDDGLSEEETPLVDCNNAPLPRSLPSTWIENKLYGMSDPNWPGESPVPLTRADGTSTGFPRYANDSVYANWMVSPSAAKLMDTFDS
Chain of Bcr/Abl fusion protein (P00519 whole entry, the tested form may be a part): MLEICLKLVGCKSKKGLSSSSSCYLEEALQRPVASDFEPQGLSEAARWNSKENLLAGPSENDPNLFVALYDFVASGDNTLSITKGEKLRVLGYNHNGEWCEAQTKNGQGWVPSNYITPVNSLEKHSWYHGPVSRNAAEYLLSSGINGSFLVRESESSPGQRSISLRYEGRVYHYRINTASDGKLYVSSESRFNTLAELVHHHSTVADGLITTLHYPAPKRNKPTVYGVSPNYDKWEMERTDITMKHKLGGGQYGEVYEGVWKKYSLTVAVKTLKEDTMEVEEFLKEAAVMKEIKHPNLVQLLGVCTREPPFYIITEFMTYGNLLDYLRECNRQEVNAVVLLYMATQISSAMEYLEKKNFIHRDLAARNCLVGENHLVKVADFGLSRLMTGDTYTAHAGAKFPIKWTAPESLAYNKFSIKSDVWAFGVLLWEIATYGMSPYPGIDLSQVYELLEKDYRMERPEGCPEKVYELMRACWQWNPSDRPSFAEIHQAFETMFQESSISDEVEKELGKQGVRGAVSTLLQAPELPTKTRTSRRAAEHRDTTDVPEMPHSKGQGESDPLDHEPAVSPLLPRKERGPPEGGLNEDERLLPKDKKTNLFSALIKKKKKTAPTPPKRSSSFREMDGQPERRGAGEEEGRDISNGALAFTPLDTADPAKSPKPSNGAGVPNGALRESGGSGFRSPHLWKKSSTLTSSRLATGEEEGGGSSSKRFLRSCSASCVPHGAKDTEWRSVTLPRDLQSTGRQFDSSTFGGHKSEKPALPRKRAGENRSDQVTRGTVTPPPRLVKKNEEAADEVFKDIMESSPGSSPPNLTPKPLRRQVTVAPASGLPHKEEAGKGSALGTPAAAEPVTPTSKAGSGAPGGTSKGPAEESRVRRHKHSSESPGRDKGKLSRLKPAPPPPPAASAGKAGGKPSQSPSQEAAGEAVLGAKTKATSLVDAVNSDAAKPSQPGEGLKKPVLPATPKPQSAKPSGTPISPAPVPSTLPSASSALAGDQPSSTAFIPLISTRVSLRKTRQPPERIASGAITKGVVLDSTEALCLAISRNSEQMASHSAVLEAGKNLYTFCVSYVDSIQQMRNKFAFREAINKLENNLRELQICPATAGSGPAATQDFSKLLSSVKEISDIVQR
Chain of Bcr/Abl fusion protein (P11274 whole entry, further chain, the tested form may be a part): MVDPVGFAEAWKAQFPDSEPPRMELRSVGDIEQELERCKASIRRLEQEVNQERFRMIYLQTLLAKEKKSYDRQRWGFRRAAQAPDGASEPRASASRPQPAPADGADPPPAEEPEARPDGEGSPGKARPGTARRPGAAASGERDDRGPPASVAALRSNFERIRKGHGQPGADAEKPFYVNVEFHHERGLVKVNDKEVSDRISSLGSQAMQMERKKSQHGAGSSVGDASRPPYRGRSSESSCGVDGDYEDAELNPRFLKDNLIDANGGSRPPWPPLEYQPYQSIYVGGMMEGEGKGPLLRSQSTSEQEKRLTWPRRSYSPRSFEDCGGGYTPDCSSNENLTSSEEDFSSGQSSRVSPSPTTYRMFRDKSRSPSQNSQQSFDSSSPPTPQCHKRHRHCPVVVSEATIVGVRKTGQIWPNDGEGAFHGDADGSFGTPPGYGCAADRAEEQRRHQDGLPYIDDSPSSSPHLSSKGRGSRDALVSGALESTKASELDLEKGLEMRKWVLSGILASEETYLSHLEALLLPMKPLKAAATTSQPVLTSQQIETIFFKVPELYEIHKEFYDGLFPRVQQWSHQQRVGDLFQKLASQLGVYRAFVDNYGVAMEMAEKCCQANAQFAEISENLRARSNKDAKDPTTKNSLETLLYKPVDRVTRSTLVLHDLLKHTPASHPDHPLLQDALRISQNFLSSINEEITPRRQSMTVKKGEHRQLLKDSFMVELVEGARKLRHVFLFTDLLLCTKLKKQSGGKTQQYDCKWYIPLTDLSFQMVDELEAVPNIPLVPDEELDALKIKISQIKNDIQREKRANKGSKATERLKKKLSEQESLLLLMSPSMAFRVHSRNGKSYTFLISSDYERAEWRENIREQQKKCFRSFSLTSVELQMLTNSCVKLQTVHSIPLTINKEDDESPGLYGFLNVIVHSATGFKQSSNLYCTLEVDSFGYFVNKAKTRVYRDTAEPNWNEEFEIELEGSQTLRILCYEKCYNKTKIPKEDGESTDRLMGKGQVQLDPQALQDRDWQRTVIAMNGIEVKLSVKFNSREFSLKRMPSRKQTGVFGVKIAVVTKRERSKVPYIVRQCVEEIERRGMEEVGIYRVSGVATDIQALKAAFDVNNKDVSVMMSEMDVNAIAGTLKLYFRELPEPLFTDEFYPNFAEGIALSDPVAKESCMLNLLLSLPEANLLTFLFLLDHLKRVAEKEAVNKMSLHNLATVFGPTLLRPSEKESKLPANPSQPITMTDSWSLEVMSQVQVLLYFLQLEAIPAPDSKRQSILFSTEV

## CC(=O)N1CCN([C@H]2C[C@@H](n3cc(-c4ccc(Cl)c(N)c4)c4c(N)ncnc43)C2)CC1
[1]
  fraction unbound at 16 h, 5 µM: 0.356
[2]
  Vd: 1.3 L/kg
[3]
  half-life: 1.2 h
[4]
  fCmax: 6.8 µM
BaF3 [5]
  pIC50: 5.34
[6]
  AUC: 5 µM·h
[7]
  AUC at 336 h: 115 µM·h
[8]
  clearance: 15 mL/min/kg
[9]
  bioavailability: 48%
[10]
  fAUC: 41 µM·h
[11]
  Activity: Non-Toxic
[12]
  Cmax: 19 µM
[13]
  Cmax: 3.8 µM
[14]
  AUC: 12 µM·h
[15]
  Cmax: 5.1 µM
[16]
  Activity: Non-Toxic
[17]
  inhibition: Active
[18]
  half-life: 2.4 h
BaF3 [19]
  Activity: Active

## COC(=O)NC12CCC(n3cc(-c4cc(N)c(Cl)cc4F)c4c(N)ncnc43)(CC1)CC2
[20]
  pIC50: < 4.52
Mus musculus [21]
  Activity: Active
[1]
  fraction unbound at 16 h, 5 µM: 0.0065
[2]
  Vd: 2.4 L/kg
[3]
  half-life: 16 h
BaF3 [5]
  pIC50: 5.39
[6]
  AUC: 40 µM·h
[8]
  clearance: 1.8 mL/min/kg
[22]
  Cmax: 8.4 µM
[9]
  bioavailability: 78%
[23]
  fCmax: 0.055 µM
BaF3 [24]
  inhibition: Active
[25]
  pIC50: 5.22
BaF3 [26]
  Activity: Active
[13]
  Cmax: 7.9 µM
[27]
  AUC at 336 h: 136 µM·h
[28]
  Activity: Non-Toxic
[14]
  AUC: 160 µM·h
[15]
  Cmax: 3.5 µM
Mus musculus [29]
  Activity: Active
[30]
  fAUC: 0.9 µM·h
[18]
  half-life: 19 h

## CC(=O)N1CCN([C@H]2C[C@@H](n3cc(-c4cc(O)ccc4F)c4c(N)ncnc43)C2)CC1
[31]
  half-life: 1.6 h
[32]
  Vd: 1.4 L/kg
[33]
  Cmax: 6.4 µM
[34]
  bioavailability: 4%
[35]
  AUC: 0.3 µM·h
[36]
  pIC50: 9.27
[37]
  clearance: 65 mL/min/kg
[38]
  Cmax: 0.2 µM
[39]
  AUC: 2 µM·h
Bcr/Abl fusion protein
  pIC50: 5.38
[40]
  half-life: 1.3 h

## CC(=O)N1CCN([C@H]2C[C@@H](n3cc(-c4ccc(O)cc4)c4c(N)ncnc43)C2)CC1
BaF3 [5]
  pIC50: < 5.00

## COC(=O)N[C@H]1CC[C@@H](n2cc(-c3ccc(Cl)c(N)c3)c3c(N)ncnc32)CC1
[20]
  pIC50: 4.60
Mus musculus [21]
  Activity: Active
[1]
  fraction unbound at 16 h, 5 µM: 0.031
[2]
  Vd: 0.37 L/kg
[3]
  half-life: 3 h
BaF3 [5]
  pIC50: 5.34
[6]
  AUC: 41 µM·h
[8]
  clearance: 1.9 mL/min/kg
[22]
  Cmax: 8.3 µM
[9]
  bioavailability: 60%
[23]
  fCmax: 0.26 µM
[25]
  pIC50: 5.28
[13]
  Cmax: 10 µM
[41]
  Activity: Non-Toxic
[27]
  AUC at 336 h: 50 µM·h
[14]
  AUC: 120 µM·h
[15]
  Cmax: 14 µM
[30]
  fAUC: 1.6 µM·h
[18]
  half-life: 3.7 h

## Nc1ncnc2c1c(-c1cccc(O)c1)cn2C1CCCC1
BaF3 [5]
  pIC50: 5.80
